Data as given in patent US12303509B2, “Compounds for the treatment of BRAF-associated diseases and disorders” (Pfizer Inc., priority 2020, dated 2025).

Assays:
[1] = target: BCRP (Homo sapiens (Human), UniProt Q9UNQ0); assay: BCRP MDCKII permeability assay: efflux ratio; format: in vitro ADME; conditions: dog
[2] = test system: WM3629 cells (BRAF D594G/NRAS G12D); assay: Cellular phospho-ERK inhibition assay in WM3629 cells; format: cell-based; conditions: 1 hour treatment, read-out: IC50 WM3629 pERK
Method: The compounds of Example 13, Example 14 and Example 126 were evaluated in a phospho-ERK assay in two mutant BRAF Class III cell lines: NCI-H1666 (BRAF^G466V) and WM3629 cells (BRAF^D594G/NRAS^G12D). NCI-H1666 cells were obtained from the American Type Culture Collection (ATCC, Rockville, MD) and WM3629 cells were obtained from Rockland Immunochemicals (Limerick, PA). Cells were maintained in RPMI growth medium containing 10% FBS.
Cells were harvested according to standard protocols, counted, and plated onto flat-bottom, 96-well tissue culture plates (Costar #3599) at 2.5×10^4 cells/well in 100 μL/well of growth medium containing 10% FBS. After an overnight incubation at 37° C. with 5% CO2 cells were treated for 1 hour at 37° C., 5% CO2 with inhibitors prepared as a 9-point, 1:3.33 fold dilution series with final compound concentrations ranging from 66 pM-10 μM and a constant DMSO concentration of 0.25%. Control wells contained either 0.25% DMSO alone (uninhibited control) or 10 μM binimetinib (complete inhibition control). The levels of phosphorylated ERK were determined using an In Cell Western protocol: following compound incubation, growth medium was discarded, and cells were fixed with 0.4% formaldehyde in PBS for 20 minutes at room temperature. Cells were permeabilized with 100% methanol for 10 minutes at room temperature. Plates were washed with PBS containing 0.05% Tween-20 and blocked for 1 hour at room temperature with LI-COR Blocking Buffer (LI-COR Biosciences; Cat. #927-40000). Plates were then incubated for 2 hours at room temperature with 50 μL of a 1:400 dilution of anti-phospho-ERK1/2 (Thr202/Tyr204) (Cell Signaling; Cat. #9101) and a 1:1000 dilution of anti-GAPDH (Millipore; Cat. #MAB374) in LI-COR blocking buffer containing 0.05% Tween-20. […] Plates were analyzed by reading on an Odyssey CLx infrared scanner. […]
[formula] • Where: • Xmax d Average Uninhibited Controls • Xmin Average Complete Inhibition Controls • IC50 values were then calculated using a 4-parameter fit in XLfit software and are shown in Table A2.

[3] = target: P-gp (MDR1) (Homo sapiens (Human), UniProt P08183); assay: MDR1 LLC-PK1 permeability assay: efflux ratio; format: in vitro ADME; conditions: pig
Source text: Final organic concentration in the assay was 1%.

[4] = test system: H1755 cells; assay: Cellular phospho-ERK inhibition assay in H1755 cells; format: cell-based; conditions: Homo sapiens, NCI-H1755, 2 hours treatment, read-out: H1755 Cell IC50
Procedure, shortened: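 A375 (DMEM) or H1755 (RPMI) cells in 10% FBS treated 2 h at 37 °C with 9-point series, 66 pM–10 μM, 0.25% DMSO. Phospho-ERK1/2 (Thr202/Tyr204) measured by In Cell Western, normalised to GAPDH and to DMSO and 10 μM binimetinib controls; IC50 by 4-parameter fit.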

Sequence of P-gp (MDR1) (P08183 whole entry, species assumed): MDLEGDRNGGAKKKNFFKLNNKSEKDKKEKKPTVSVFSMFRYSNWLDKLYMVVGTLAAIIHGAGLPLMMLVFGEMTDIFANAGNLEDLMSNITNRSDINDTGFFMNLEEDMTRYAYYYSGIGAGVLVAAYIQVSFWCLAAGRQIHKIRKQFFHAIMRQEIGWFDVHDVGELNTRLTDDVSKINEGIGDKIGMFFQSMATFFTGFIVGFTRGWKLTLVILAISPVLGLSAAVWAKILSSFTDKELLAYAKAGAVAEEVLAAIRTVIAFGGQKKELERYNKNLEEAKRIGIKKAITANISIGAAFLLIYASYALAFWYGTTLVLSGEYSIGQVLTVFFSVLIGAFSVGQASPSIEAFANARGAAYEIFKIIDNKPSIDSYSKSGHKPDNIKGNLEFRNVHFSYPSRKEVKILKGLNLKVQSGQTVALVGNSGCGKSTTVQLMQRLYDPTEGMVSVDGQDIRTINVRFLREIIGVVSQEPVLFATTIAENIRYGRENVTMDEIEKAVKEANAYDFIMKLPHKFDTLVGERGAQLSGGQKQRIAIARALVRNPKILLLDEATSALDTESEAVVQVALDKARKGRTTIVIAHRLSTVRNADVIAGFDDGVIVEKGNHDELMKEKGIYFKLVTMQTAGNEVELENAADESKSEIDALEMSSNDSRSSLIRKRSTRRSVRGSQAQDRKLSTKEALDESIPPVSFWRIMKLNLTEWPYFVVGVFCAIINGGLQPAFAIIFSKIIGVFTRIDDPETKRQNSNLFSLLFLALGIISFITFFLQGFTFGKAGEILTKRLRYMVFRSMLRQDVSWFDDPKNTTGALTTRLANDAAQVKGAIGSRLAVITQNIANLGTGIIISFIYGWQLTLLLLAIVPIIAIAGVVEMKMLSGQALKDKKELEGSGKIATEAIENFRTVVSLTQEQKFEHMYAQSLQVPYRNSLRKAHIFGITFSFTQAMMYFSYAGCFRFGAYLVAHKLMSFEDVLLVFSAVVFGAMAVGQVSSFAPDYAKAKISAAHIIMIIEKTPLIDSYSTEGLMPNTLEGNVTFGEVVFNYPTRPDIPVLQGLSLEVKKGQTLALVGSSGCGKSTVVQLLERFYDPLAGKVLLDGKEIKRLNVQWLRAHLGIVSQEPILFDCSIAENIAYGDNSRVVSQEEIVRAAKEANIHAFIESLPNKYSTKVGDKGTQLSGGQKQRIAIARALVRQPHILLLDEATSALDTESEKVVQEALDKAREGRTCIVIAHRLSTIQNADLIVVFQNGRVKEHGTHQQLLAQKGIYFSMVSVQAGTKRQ
Sequence of BCRP (Q9UNQ0 whole entry): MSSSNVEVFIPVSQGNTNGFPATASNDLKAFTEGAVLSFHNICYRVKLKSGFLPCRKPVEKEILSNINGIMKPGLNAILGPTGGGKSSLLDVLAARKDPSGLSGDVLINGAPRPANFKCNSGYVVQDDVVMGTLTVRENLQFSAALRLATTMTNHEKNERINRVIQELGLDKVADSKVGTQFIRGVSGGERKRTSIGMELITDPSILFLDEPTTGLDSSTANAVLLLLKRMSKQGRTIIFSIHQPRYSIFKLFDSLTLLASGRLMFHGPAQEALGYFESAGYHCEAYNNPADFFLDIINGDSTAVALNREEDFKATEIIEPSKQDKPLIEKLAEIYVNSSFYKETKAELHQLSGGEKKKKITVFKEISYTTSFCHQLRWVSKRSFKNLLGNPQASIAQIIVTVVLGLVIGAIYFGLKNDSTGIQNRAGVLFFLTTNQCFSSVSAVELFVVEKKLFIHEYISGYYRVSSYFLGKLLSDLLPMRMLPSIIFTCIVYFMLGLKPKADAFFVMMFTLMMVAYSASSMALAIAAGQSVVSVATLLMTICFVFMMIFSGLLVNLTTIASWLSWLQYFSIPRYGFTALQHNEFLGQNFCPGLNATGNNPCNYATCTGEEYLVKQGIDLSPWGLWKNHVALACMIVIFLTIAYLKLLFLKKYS

efflux ratio at 2 h, 1 µM [1] | IC50 [2] [nM] | efflux ratio at 2 h, 1 µM [3] | IC50 [4] [nM] | SMILES
1.8 | 0.7 | 1.5 | 78 | Cn1cnc2ccc(Nc3c(F)ccc(NS(=O)(=O)N4CC5CC4C5)c3Cl)c(F)c2c1=O [Example 13, N-(2-chloro-4-fluoro-3-((5-fluoro-3-methyl-4-oxo-3,4-dihydroquinazolin-6-yl)amino)phenyl)-2-azabicyclo[2.1.1]hexane-2-sulfonamide]
5.4 | 0.2 | 3.2 | 21 | Cn1cnc2ccc(Nc3c(F)ccc(NS(=O)(=O)N4CC[C@@H](F)C4)c3Cl)c(F)c2c1=O [Example 14, (R)-N-(2-chloro-4-fluoro-3-((5-fluoro-3-methyl-4-oxo-3,4-dihydroquinazolin-6-yl)amino)phenyl)-3-fluoropyrrolidine-1-sulfonamide]
